Experimental data taken from ChEMBL document CHEMBL2021861, “Structure-activity relationship study of opiorphin, a human dual ectopeptidase inhibitor with antinociceptive properties” (J Med Chem, 2012).
Numbered stars: 1 amine (or outer) side, 2 acyl side, 3 side chain; on linkers, the order of the positions; unused ones are H or OH. Square brackets hold non-standard residues; d marks the D form. Peptide text beside a SMILES is read from it. β3hPhg = O=C(C[C@@H](N[*:1])c1ccccc1)[*:2]; Phg = N[C@H](C(=O)O)c1ccccc1

Key:
Neprilysin = Neprilysin (Homo sapiens, UniProt P08473); test: Inhibition of human recombinant NEP ectopeptidase activity using Abz-dRGL-(EDDnp) as substrate preincubated for 10 mins with substrate by fluorimetric analysis
Neprilysin, sequence (P08473 whole entry): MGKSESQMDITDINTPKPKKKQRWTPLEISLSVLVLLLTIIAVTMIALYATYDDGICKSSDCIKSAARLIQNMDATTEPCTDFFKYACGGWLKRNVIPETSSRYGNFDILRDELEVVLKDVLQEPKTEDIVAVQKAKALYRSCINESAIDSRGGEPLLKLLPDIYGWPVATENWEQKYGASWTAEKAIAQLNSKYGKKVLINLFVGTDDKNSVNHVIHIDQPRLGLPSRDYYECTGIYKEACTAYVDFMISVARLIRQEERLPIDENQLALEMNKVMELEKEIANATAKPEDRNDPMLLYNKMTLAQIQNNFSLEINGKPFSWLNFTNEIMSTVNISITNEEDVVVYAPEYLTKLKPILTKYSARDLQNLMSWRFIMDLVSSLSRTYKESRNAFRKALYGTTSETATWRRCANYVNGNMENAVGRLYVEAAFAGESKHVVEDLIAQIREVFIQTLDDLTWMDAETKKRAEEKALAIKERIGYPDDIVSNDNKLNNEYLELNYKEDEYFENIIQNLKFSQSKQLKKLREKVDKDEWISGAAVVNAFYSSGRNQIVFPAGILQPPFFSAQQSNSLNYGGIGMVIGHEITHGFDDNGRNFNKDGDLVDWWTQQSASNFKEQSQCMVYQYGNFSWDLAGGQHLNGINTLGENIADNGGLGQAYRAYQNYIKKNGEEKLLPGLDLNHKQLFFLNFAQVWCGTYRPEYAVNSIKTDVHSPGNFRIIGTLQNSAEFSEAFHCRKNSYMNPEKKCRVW

Aminopeptidase N = Aminopeptidase N (Homo sapiens, UniProt P15144); test: Inhibition of human recombinant AP-N ectopeptidase activity using alanine-MCA as substrate preincubated for 10 mins with substrate by fluorimetric analysis
Aminopeptidase N, sequence (P15144 whole entry): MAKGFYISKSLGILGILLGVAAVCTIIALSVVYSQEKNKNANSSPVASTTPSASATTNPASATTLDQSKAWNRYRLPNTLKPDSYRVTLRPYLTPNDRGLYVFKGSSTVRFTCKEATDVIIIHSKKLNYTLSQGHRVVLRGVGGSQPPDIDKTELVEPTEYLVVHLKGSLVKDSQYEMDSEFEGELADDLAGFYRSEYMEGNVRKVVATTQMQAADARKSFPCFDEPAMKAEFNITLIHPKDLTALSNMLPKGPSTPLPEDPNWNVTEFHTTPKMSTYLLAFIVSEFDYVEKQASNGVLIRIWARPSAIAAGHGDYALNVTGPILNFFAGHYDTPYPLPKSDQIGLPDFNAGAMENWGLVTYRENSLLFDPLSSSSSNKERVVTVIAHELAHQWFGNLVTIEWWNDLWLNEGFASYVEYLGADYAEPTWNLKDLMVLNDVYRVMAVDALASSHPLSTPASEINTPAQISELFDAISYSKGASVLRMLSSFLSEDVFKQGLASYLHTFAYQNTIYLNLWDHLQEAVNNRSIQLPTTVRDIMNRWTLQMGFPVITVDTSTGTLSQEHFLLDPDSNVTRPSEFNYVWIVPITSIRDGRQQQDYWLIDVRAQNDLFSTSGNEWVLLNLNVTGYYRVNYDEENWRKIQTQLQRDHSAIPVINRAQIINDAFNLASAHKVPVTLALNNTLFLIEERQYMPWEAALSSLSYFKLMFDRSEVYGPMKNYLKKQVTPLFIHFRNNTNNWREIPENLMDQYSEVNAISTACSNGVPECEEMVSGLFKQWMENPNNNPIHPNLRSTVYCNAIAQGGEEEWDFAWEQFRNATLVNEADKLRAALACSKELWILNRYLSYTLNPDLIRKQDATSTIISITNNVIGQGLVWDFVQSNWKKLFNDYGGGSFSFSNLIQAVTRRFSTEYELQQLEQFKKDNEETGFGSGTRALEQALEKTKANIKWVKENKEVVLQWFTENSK

Row | Compound | IC50 (Neprilysin) [µM] | IC50 (Aminopeptidase N) [µM]
1 | NC(=O)CC[C@H](N)C(=O)N[C@@H](CCCN=C(N)N)C(=O)N[C@H](CC(=O)N[C@@H](CO)C(=O)N[C@@H](CCCN=C(N)N)C(=O)O)c1ccccc1 (H-QR[β3hPhg]SR-OH) | > 100 | > 70
2 | H-QRASR-OH | > 100 | > 70
3 | H-QRFSA-OH | – | > 70

Results, then the compound that gave them:

Row | IC50 (Neprilysin) [µM] | IC50 (Aminopeptidase N) [µM] | Compound
4 | > 100 | – | N=C(N)NCCC[C@H](NC(=O)[C@H](CO)NC(=O)[C@@H](NC(=O)[C@H](CCCNC(=N)N)NC(=O)[C@@H](N)CCC(N)=O)c1ccccc1)C(=O)O (H-QR[Phg]SR-OH)
5 | > 70 | – | H-ARFSR-OH
